Experimental data: US20190125714A1, “CALPAIN INHIBITORS IN THE PREVENTION AND/OR TREATMENT OF VENTRICULAR REMODELLING” (FUNDAClÓ HOSPITAL UNIVERSITARI VALL D'HEBRON - INSTITUT DE …, priority 2016, published 2019)
Read-outs that look alike come from different tables or passages of the source.

Tests used:
[1] = administered at the start (onset) of reperfusion; cited from earlier work
[2] = intravenously before initiating ischemia and during a reperfusion of 6 hours; cited from earlier work
Sprague-Dawley rats [3] = assay: Myocardial hypertrophy and fibrosis induced by isoproterenol; format: in vivo, rat; details: 7 days
Experimental: Chronic administration of isoproterenol is the most common small animal model in the study of myocardial remodeling. In order to study the effect of calpain inhibition in AVR of a different cause than myocardial infarction, myocardial hypertrophy and fibrosis induced by isoproterenol.
The calpain inhibitor SNJ-1945 was co-administered orally once a day to male Sprague-Dawley rats that received 5 mg/Kg/day isoproterenol (ISO) […] for 1 week. Assayed groups were as follows:
Isoproterenol group (ISO): administration of isoproterenol as a single daily subcutaneous injection for 7 consecutive days.
SNJ-1945 treated group (SNJ+ISO): co-administration of SNJ-1945 (orally) and isoproterenol (subcutaneous) for 7 consecutive days.
Hearts were obtained and compared with vehicle-treated and ISO treated rats not receiving the calpain inhibitor.
Echocardiography was performed using a Vivid portable ultrasound system with a i12L-RS 12 MHz transducer (GE Healthcare) as described earlier (Poncelas, Inserte et al. 2015, “Obesity induced by high fat diet attenuates postinfarct myocardial remodeling and dysfunction in adult B6D2F1 mice”, Journal of Molecular and Cellular Cardiology-2015, vol. no. 84, pp.: 154-161).
For the PCR, total RNA was extracted from ischemic and non-ischemic area of heart samples of the three assayed groups using TRIsure™ reagent (BIOLINE, UK) following the manufacturer's protocol. Quantitative RT-PCR was performed using Taqman universal PCR master mix (Applied Biosystems, USA). The amplification program consisted of 50° C. for 2 minutes, 95° C. for 10 minutes and 40 cycles of 95° C. for 15 sec and 60° C. for 1 minutes and was performed in a 7900HT Fast Real-Time PCR System (Applied Biosystems, USA). Primers used for ANP, BNP, collagen I, Myh6, Myh7, and […] were purchased from Thermofisher and were those in the following Gene Expression Assays (Rn00561661_m1, Rn04219558_g1, Rn01463848_m1, Rn00691721_g1, Rn01488777_g1, and Rn00572010_m1, respectively, reference to assays retrievable from Thermofisher catalogue at Mar. 1, 2017; https://www.thermofisher.com/order/genome-databaseldetails/gene-expression/).

[4] = molecular target: T1, matrix metalloproteinase-2 (MMP-2) (Rattus norvegicus, UniProt P33436); assay: MMP-2 gelatinolytic activity by gelatin zymography of myocardial extracts; format: biochemical; details: 5, 10 and 50 μM, incubated overnight at 37° C.
T1 construct: myocardial preparations obtained from rats reperfused for 21 days (control group); from tissue; host or cells: rat myocardium (extracts after 21 days of reperfusion)
T1 sequence (P33436 110-662): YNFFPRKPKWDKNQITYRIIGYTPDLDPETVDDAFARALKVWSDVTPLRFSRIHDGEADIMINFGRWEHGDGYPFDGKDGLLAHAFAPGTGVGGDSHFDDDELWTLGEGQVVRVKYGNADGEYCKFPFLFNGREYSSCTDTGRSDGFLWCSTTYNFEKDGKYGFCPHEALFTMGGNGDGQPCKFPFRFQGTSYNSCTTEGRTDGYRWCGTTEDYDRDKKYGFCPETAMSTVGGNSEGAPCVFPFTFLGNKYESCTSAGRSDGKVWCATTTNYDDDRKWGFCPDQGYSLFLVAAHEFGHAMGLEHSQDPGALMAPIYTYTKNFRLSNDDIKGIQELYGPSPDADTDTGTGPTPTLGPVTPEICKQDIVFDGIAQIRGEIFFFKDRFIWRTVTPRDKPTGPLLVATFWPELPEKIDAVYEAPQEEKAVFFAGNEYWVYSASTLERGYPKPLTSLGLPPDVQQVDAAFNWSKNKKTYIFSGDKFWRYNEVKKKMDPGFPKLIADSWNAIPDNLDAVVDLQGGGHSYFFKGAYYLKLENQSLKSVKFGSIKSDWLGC
Experimental: Activity of MMP-2 was evaluated by gelatin zymography. Briefly, myocardial preparations obtained from rats reperfused for 21 days (control group) were run on a 10% polyacrylamide gel copolymerized with 1.5 mg/ml gelatin. After washing with 2.5% Triton X-100, gels were cut into strips and incubated separately, overnight, in zymography buffer with SNJ-1945 at the concentrations of 5, 10 and 50 μM, DMSO as a vehicle control or the selective MMP inhibitor ONO-4817 (N-[(1 S,3S)-1-[(Ethoxymethoxy)methyl]-4-(hydroxyamino)-3-methyl-4-oxobutyl]-4-phenoxybenzamide) (50 μM, Tocris). It was further examined MMP-2 activity (as % of 0 μM) in samples prepared from animals receiving SNJ-1945 by oral gavage and reperfused for 21 days (Chronic group). Gels were stained in 0.25% Coomassie Brilliant blue G, 40% methanol, and gelatinolytic activities quantitated after destaining.

calpain [5] = assay: Proteolysis of α-fodrin after oral gavage, 60 minutes of reperfusion; format: in vivo, rat; details: 120 mg/kg orally (gavage); after 60 minutes of reperfusion
calpain [6] = assay: Isolated rat hearts subjected to ischemia/reperfusion, calpain-specific α-fodrin breakdown products; details: perfusion of isolated rat hearts, data not shown
Sprague-Dawley rats [7] = assay: Inflammatory cell infiltration (CD68 immunohistochemistry) in hearts reperfused for 3 days; format: in vivo, rat; details: 3 days of reperfusion
Experimental: Sprague-Dawley rats (250-300 g) were premedicated with atropine (0.05 mg/kg ip), anaesthetized with ketamine (75 mg/kg ip) and xylazine (10 mg/kg ip), and mechanically ventilated (Inspira ASV, Harvard Apparatus). Anaesthesia was maintained with 1-2% isoflurane and body temperature controlled with a heating pad to 36-37° C. The heart was exposed through the fourth intercostal space and the left anterior descending coronary artery (LAD) ligated using 6/0 silk suture (Ethicon Endo-surgery, OH, USA), 1 mm distal to left atrial appendage. After occlusion for 30 min, the suture was loosened to start reperfusion and buprenorphine (0.05 mg/kg per 6 h, subcutaneously) was given for 48 h. Mice with lack of ST-elevation during ischemia or lack of ST-recovery at reperfusion were excluded from further evaluation.
Macrophage infiltration in the non-infarcted myocardium was analyzed by immunohistochemistry in hearts reperfused for 3 days (n=4 per group).
Myocardial sections were exposed to H2O2/methanol, levamisol (DakoCytomation) and avidin/biotin blocking (Vector Laboratories) to neutralize endogenous peroxidase, phosphatase and biotin, respectively. Sections were probed with CD68 (AbD Serotec) for monocytes/macrophages, incubated with a biotinylated secondary antibody (1:200, ABC Peroxidase standard stainig kit, Thermo Scientific) in 2% normal blocking serum and visualized using 3, 3′-diaminobenzidine (DAB, Sigma). Six random photomicrographs from the infarct area and six from the non-infarcted area for each heart (n=6 per group) were taken at 200× magnification.

Sprague-Dawley rats [8] = details: for Attenuation of scar area (LV area stained with picrosirius red): 21 days of reperfusion
[9] = added to the cardioplegic solution and during 60 min of reperfusion; cited from earlier work
[10] = SNJ-1945 orally once a day with isoproterenol 5 mg/Kg/day
[11] = oral co-administration with ISO

In the case of `CCN(CC)Cc1ccc(/C=C/c2ccccc2C(=O)NC(Cc2ccccc2)C(=O)C(N)=O)cc1` (centres unmarked) [A-705253], the Cardioprotective effect [1] is given as “cardioprotective effect”, the “Hemodynamic and contractile function” value [2] is given as “improved” and the Infarct size [2] is given as “reduced”.
With `COCCOCCOC(=O)N[C@@H](CC(C)C)C(=O)N[C@@H](Cc1ccccc1)C(=O)C(=O)NC1CC1` [SNJ-1945, ((1S)-1-((((1S)-1-benzyl-2,3-dioxo-3-(cyclopropylamino)-propyl)amino)carbonyl)-3-methylbutyl)carbamic acid 5-methoxy-3-oxapentyl ester] the “Increase in heart weight induced by isoproterenol” value (Sprague-Dawley rats [3]; [10]) was “reduces the increase”, the “Increase in interventricular wall (IVSWT) thickness induced by isoproterenol, echocardiography” value (Sprague-Dawley rats [3]; [10]) was “reduces the increase” and the “Increase in posterior wall (PWT) thickness induced by isoproterenol, echocardiography” value (Sprague-Dawley rats [3]; [10]) was “reduces the increase”. The “ANP mRNA levels (PCR)” value (Sprague-Dawley rats [3]; [11]) was “reduced”, the “BNP mRNA levels (PCR)” value (Sprague-Dawley rats [3]; [11]) was “reduced” and the Calpain activation (Sprague-Dawley rats [3]; [11]) was “attenuated”. For the same compound, the Cardiomyocyte crossectional area (Sprague-Dawley rats [3]; [11]) was “reduced”, the “Expression of TGFβ induced by ISO (PCR)” value (Sprague-Dawley rats [3]; [11]) was “significantly reduced” and the “Expression of collagen I induced by ISO (PCR)” value (Sprague-Dawley rats [3]; [11]) was “significantly reduced”. The “Intraventricular collagen deposition induced by ISO” value (Sprague-Dawley rats [3]; [11]) was “significantly reduced”, the “β-MHC/α-MHC ratio (PCR)” value (Sprague-Dawley rats [3]; [11]) was “reduced” and the “MMP-2 activity (gelatinolytic)” value [4] was “does not inhibit”. For the same compound, the “Proteolisis of α-fodrin” value (calpain [5]) was “significantly reduced”, the “Calpain-specific α-fodrin breakdown products (calpain inhibition)” value (calpain [6]) was “dose-dependent reduction” and the “Infiltration of monocytes/macrophages: acute and chronic treatments combined” value (Sprague-Dawley rats [7]; Ac+Chr group, P<0.001) was “no significant additive effect”. The “Infiltration of monocytes/macrophages (CD68+) in the ischemic area” value (Sprague-Dawley rats [7]; Acute group, P=0.002) was “attenuate”, the “Infiltration of monocytes/macrophages (CD68+) in the non-ischemic area” value (Sprague-Dawley rats [7]; Acute group, P=0.046) was “attenuate” and the “Infiltration of monocytes/macrophages (CD68+) in the non-ischemic area” value (Sprague-Dawley rats [7]; Chronic group, P=0.001) was “attenuate”. For the same compound, the “Infiltration of monocytes/macrophages (CD68+) in the ischemic area” value (Sprague-Dawley rats [7]; Chronic group, P=0.028) was “attenuate”, the “LV dilation and dysfunction (echocardiography: LVEDD, LVESD, EF)” value (shortened to “LV dilation and dysfunction”) (Sprague-Dawley rats [8]; Ac+Chr group: acute ip plus oral 14 days, measured at 1 week of reperfusion vs control) was “significantly attenuated” and the “Attenuation of scar area (LV area stained with picrosirius red)” value (shortened to “Attenuation of scar area”) (Sprague-Dawley rats [8]; Ac+Chr group, P=0.003) was 33.7%. The “Levels of α-SMA (marker of fibroblast activation, western-blot)” value (Sprague-Dawley rats [8]; Ac+Chr group, P=0.009) was “reduced”, the “Interstitial fibrosis, acute and chronic phase combined” value (Sprague-Dawley rats [8]; Ac+Chr group, P=0.016) was “No further reduction” and the “β-MHC protein levels (western-blot, relative to GAPDH)” value (Sprague-Dawley rats [8]; Ac+Chr group, P=0.019) was “attenuated”. For the same compound, the “Cardiomyocyte hypertrophy (cross-sectional area, non-ischemic myocardium)” value (Sprague-Dawley rats [8]; Ac+Chr group, P=0.021) was “significantly reduced”, the “LV dilatation, ejection fraction and scar area: combination vs individual treatments” value (Sprague-Dawley rats [8]; Ac+Chr vs acute or chronic alone) was “did not result in a statistically significant improvement” and the “Hypertrophy markers: additive effect when both treatments were combined” value (Sprague-Dawley rats [8]; Ac+Chr vs single treatments) was “No significant additive effect”. The “Cardiomyocyte hypertrophy (cross-sectional area, non-ischemic myocardium)” value (Sprague-Dawley rats [8]; Acute group) was “not acute”, the “β-MHC protein levels (western-blot, relative to GAPDH)” value (Sprague-Dawley rats [8]; Acute group) was “attenuated only in groups treated chronically” and the “Attenuation of scar area” value (Sprague-Dawley rats [8]; Acute group, 120 mg/kg ip at reperfusion, P=0.002) was 29.1%. The “LV dilation and dysfunction” value (Sprague-Dawley rats [8]; Acute group: 120 mg/kg intraperitoneally 5 min before reperfusion, measured at 1 week of reperfusion vs control) was “significantly attenuated”, the “Interstitial collagen deposition in the non-infarcted area” value (Sprague-Dawley rats [8]; Acute group, P=0.109) was “not acute treatment” and the “Attenuation of scar area” value (Sprague-Dawley rats [8]; Chronic group, 120 mg/kg oral 14 days from 24 h of reperfusion, P=0.036) was 22.7%. The “LV dilation and dysfunction” value (Sprague-Dawley rats [8]; Chronic group: 120 mg/kg orally over 14 days starting after 24 h of reperfusion, at 21 days of reperfusion vs control) was “significantly attenuated”, the “Levels of α-SMA (marker of fibroblast activation, western-blot)” value (Sprague-Dawley rats [8]; Chronic group, P=0.012) was “reduced” and the “Interstitial collagen deposition in the non-infarcted area” value (Sprague-Dawley rats [8]; Chronic group, P=0.029) was “reduced”. For the same compound, the “β-MHC protein levels (western-blot, relative to GAPDH)” value (Sprague-Dawley rats [8]; Chronic group, P=0.036) was “attenuated”, the “Cardiomyocyte hypertrophy (cross-sectional area, non-ischemic myocardium)” value (Sprague-Dawley rats [8]; Chronic group, P=0.041) was “significantly reduced” and the “Echocardiographic parameters, acute vs chronic treatment” value (Sprague-Dawley rats [8]; at the end of the experiment (21 days)) was “No significant differences”. For the same compound, the “Survival rate between groups” value (Sprague-Dawley rats [8]; control, acute, chronic, Ac+Chr, overall mortality rate 12.5%) was “no differences” and the “Left ventricular dysfunction after cardioplegic arrest” value [9] was “prevents left ventricular dysfunction”.
